EP0414894A1 (priority 1989, dated 1990)
Values joined by “and” are separate entries in the source; they are usually repeats but may differ in a detail not shown here. Equal entries are not always repeated. Where two headings read alike, the source gives them in different places.

Legend:
domestic flies [1] = assay: insecticidal activity, laboratory test in gauze boxes; format: in vivo; conditions: 2% solution in 5% aqueous glucose; observed in 48-72 hours
Experimental: The compound obtained was used for preparing an insecticidal composition which was a 2% solution of the compound in a 5% aqueous solution of glucose. The test for activity of the insecticidal composition of the invention was conducted on domestic flies. Into gause 10x10 cm boxes /6 boxes/ 6-7-day flies were placed in the number of 50 individuals per box, which were of both sexes. The Petri dishes containing the insecticidal composition of the invention were put into 5 boxes. The observations for fly death were carried out in 48-72 hours. The Petri dish containing a 5% aqueous glucose solution were placed into a control box.

domestic flies [2] = assay: insecticidal activity, full-scale (large-scale) test in premises; format: in vivo; conditions: 2% solution, 2-3 dishes per 20 m²; 72 hours
Experimental: The full-scale tests for activity of the insecticidal composition of the invention to domestic flies in habitable and industrial premises were carried out as follows. The Petri dishes containing a 2% solution of the insecticidal composition of the invention were located according 2-3-dishes per 20 m². The composition activity was evaluated by a direct estimation of killed insects in 72 hours or by using an adhesive tape to count the number of flies on its surface prior to and after conducting the test.

Influenza A viruses = assay: virulicidal activity, virus titer in allantoic fluid by hemagglutination-inhibition
Hepatitis B virus = assay: virulicidal activity, HBsAg titer in blood serum
Description: table ratio instead of the test composition.

Meningopneumonia virus = system: Meningopneumonia virus; design: species or system meningopneumonia pathogene/MP strain/
pig ascarid eggs = assay: microbe, parasite or virus in culture
Staphylococcus aureus = assay: microbe, parasite or virus in culture; format: cell-based; conditions: for killing at 0.2 %: read-out: Death of micro-organisms, % S.aureus
Escherichia coli = assay: microbe, parasite or virus in culture; format: cell-based; conditions: for killing at 0.2 %: read-out: Death of micro-organisms, % E.coli
[3] = 24 h, read-out: Death of ascaridal eggs, % after 24 hours
[4] = 48 h, read-out: Death of ascaridal eggs, % after 48 hours
[5] = concentration 1.0 % by mass, 30 min
[6] = concentration 1.0 % by mass, 60 min
[7] = concentration 2.0 % by mass, 30 min
[8] = concentration 2.0 % by mass, 60 min

SMILES: CC(C)OP(=NC(CO)C(O)c1ccc([N+](=O)[O-])cc1)(OC(C)C)OC(C)C (stereo not drawn) [Example 3, triisopropoxyphosphazo-1-para-nitrophenyl-1,3-propandiol]
- Death of flies, % Tests in laboratory (domestic flies [1]): 82.0%
- Death of flies, % Tests in large-scale (domestic flies [2]): 80.0%

SMILES: O=[N+]([O-])c1ccc(C(O)C(CO)N=P(OC(CCl)c2ccccc2)(OC(CCl)c2ccccc2)OC(CCl)c2ccccc2)cc1 (stereo not drawn) [Example 4, tris/2-chloro-1-phenylethoxy/phosphazo-1-para-nitrophenyl-1,3-propandiol]
- Death of flies, % Tests in laboratory (domestic flies [1]): 73.4%
- Death of flies, % Tests in large-scale (domestic flies [2]): 75.0%

SMILES: CC(C)OP(=NC(CCl)C(O)c1ccc([N+](=O)[O-])cc1)(OC(C)C)OC(C)C (stereo not drawn) [Example 6, tri-isopropoxyphosphazo-1-para-nitrophenyl-1-chloro-3-propanol]
- Death of flies, % Tests in laboratory (domestic flies [1]): 90.9%
- Death of flies, % Tests in large-scale (domestic flies [2]): 89.0%
- Virulicidal activity (%) under exposure 30 min (Influenza A viruses; concentration 1.0 % by mass): 75.0%
- Virulicidal activity (%) under exposure 60 min (Influenza A viruses; concentration 1.0 % by mass): 98.0%
- Virulicidal activity (%) under exposure 30 min (Influenza A viruses; concentration 2.0 % by mass): 93.8%
- Virulicidal activity (%) under exposure 60 min (Influenza A viruses; concentration 2.0 % by mass): 100.0%
- Virulicidal activity (%) under exposure 30 min (Hepatitis B virus; concentration 1.0 % by mass): 100.0%
- Virulicidal activity (%) under exposure 60 min (Hepatitis B virus; concentration 1.0 % by mass): 100.0%
- Virulicidal activity (%) under exposure 30 min (Hepatitis B virus; concentration 2.0 % by mass): 100,0%
- Virulicidal activity (%) under exposure 60 min (Hepatitis B virus; concentration 2.0 % by mass): 100,0%
- Virulicidal activity (%) under exposure 30 min (Meningopneumonia virus): 99.0% and 100.0%
- Virulicidal activity (%) under exposure 60 min (Meningopneumonia virus): 100.0%

SMILES: CCCCOP(=NC(CCl)C(O)c1ccc([N+](=O)[O-])cc1)(OCCCC)OCCCC (stereo not drawn) [Example 7, tri-n-butoxyphosphazo-1-paranitrophenyl-1-chloro-3-propanol]
- Death of flies, % Tests in laboratory (domestic flies [1]): 96.0%
- Death of flies, % Tests in large-scale (domestic flies [2]): 96.8%

SMILES: O=[N+]([O-])c1ccc(C(O)C(CCl)N=P(OC(CCl)c2ccccc2)(OC(CCl)c2ccccc2)OC(CCl)c2ccccc2)cc1 (stereo not drawn) [Example 8, tris/2-chlorol-phenylethoxy/-phosphazo-1-paranitrophenyl-1-chloro-3-propanol]
- Death of flies, % Tests in laboratory (domestic flies [1]): 84.3%
- Death of flies, % Tests in large-scale (domestic flies [2]): 84.0%

SMILES: CCCOP(=NC(CCl)C(Cl)c1ccc([N+](=O)[O-])cc1)(OCCC)OCCC (stereo not drawn) [Example 11, tri-n-propoxyphosphazo-1-para-nitrophenyl-1,3-dichloropropane]
- Death of flies, % Tests in laboratory (domestic flies [1]): 89.0%
- Death of flies, % Tests in large-scale (domestic flies [2]): 89.0%

SMILES: CC(C)OP(=NC(CCl)C(Cl)c1ccc([N+](=O)[O-])cc1)(OC(C)C)OC(C)C (stereo not drawn) [Example 12, triisopropoxyphosphazo-1-paranitrophenyl]
- Death of flies, % Tests in laboratory (domestic flies [1]): 92.0%
- Death of flies, % Tests in large-scale (domestic flies [2]): 90.0%

SMILES: CCCCOP(=NC(CCl)C(Cl)c1ccc([N+](=O)[O-])cc1)(OCCCC)OCCCC (stereo not drawn) [Example 13, tri-n-butoxyphosphazo-1-para-nitrophenyl-1,3-dichloropropane]
- Death of flies, % Tests in laboratory (domestic flies [1]): 92.0%
- Death of flies, % Tests in large-scale (domestic flies [2]): 91.0%
- Virulicidal activity (%) under exposure 30 min (Influenza A viruses; concentration 1.0 % by mass): 50.0%
- Virulicidal activity (%) under exposure 60 min (Influenza A viruses; concentration 1.0 % by mass): 75.0%
- Virulicidal activity (%) under exposure 30 min (Influenza A viruses; concentration 2.0 % by mass): 93.8%
- Virulicidal activity (%) under exposure 60 min (Influenza A viruses; concentration 2.0 % by mass): 100.0%
- Virulicidal activity (%) under exposure 30 min (Hepatitis B virus; concentration 1.0 % by mass): 75.0%
- Virulicidal activity (%) under exposure 60 min (Hepatitis B virus; concentration 1.0 % by mass): 100.0%
- Virulicidal activity (%) under exposure 30 min (Hepatitis B virus; concentration 2.0 % by mass): 100,0%
- Virulicidal activity (%) under exposure 60 min (Hepatitis B virus; concentration 2.0 % by mass): 100,0%
- Virulicidal activity (%) under exposure 30 min (Meningopneumonia virus): 75.0% and 99.0%
- Virulicidal activity (%) under exposure 60 min (Meningopneumonia virus): 100.0%

SMILES: O=[N+]([O-])c1ccc(C(Cl)C(CCl)N=P(OC(CCl)c2ccccc2)(OC(CCl)c2ccccc2)OC(CCl)c2ccccc2)cc1 (stereo not drawn) [Example 14, tris-/2-chloro-1-phenoxy/phosphazo-1-para-nitrophenyl-1,3-dichloropropane]
- Death of flies, % Tests in laboratory (domestic flies [1]): 71.3%
- Death of flies, % Tests in large-scale (domestic flies [2]): 70.0%
- Virulicidal activity (%) under exposure 30 min (Influenza A viruses; concentration 1.0 % by mass): 75.0%
- Virulicidal activity (%) under exposure 60 min (Influenza A viruses; concentration 1.0 % by mass): 93.8%
- Virulicidal activity (%) under exposure 30 min (Influenza A viruses; concentration 2.0 % by mass): 93.8%
- Virulicidal activity (%) under exposure 60 min (Influenza A viruses; concentration 2.0 % by mass): 100.0%
- Virulicidal activity (%) under exposure 30 min (Hepatitis B virus; concentration 1.0 % by mass): 100.0%
- Virulicidal activity (%) under exposure 60 min (Hepatitis B virus; concentration 1.0 % by mass): 100.0%
- Virulicidal activity (%) under exposure 30 min (Hepatitis B virus; concentration 2.0 % by mass): 100,0%
- Virulicidal activity (%) under exposure 60 min (Hepatitis B virus; concentration 2.0 % by mass): 100,0%
- Virulicidal activity (%) under exposure 30 min (Meningopneumonia virus): 50.0% and 90.0%
- Virulicidal activity (%) under exposure 60 min (Meningopneumonia virus): 75.0% and 100.0%

SMILES: O=[N+]([O-])c1ccc(C(O)C(CO)N=P(Oc2ccccc2)(Oc2ccccc2)Oc2ccccc2)cc1 (stereo not drawn) [Example 21, triphenoxyphosphazo-1-para-nitrophenyl-1,3-propanol]
- Virulicidal activity (%) under exposure 30 min (Influenza A viruses; concentration 1.0 % by mass): 87.5%
- Virulicidal activity (%) under exposure 60 min (Influenza A viruses; concentration 1.0 % by mass): 100.0%
- Virulicidal activity (%) under exposure 30 min (Hepatitis B virus; concentration 1.0 % by mass): 50.0%
- Virulicidal activity (%) under exposure 60 min (Hepatitis B virus; concentration 1.0 % by mass): 87.5%
- Virulicidal activity (%) under exposure 30 min (Hepatitis B virus; concentration 2.0 % by mass): 100,0%
- Virulicidal activity (%) under exposure 60 min (Hepatitis B virus; concentration 2.0 % by mass): 100,0%

SMILES: O=[N+]([O-])c1ccc(C(O)C(CO)N=P(Nc2ccccc2)(Nc2ccccc2)Nc2ccccc2)cc1 (stereo not drawn) [Example 29, trianilidophosphazo-1-para-nitrophenyl-1,3-propanediol]
- killing at 2 % (pig ascarid eggs; [3]): 97.6%
- killing at 2 % (pig ascarid eggs; [4]): 100%

SMILES: O=[N+]([O-])c1ccc(C(O)C(CO)N=P(Cl)(Oc2ccccc2)Oc2ccccc2)cc1 (stereo not drawn) [Example 36, diphenoxychlorophosphazo-1-nitrophenyl-1,3-dihydroxypropyl]
- Death of micro-organisms, % S.aureus (Staphylococcus aureus): 90.0%
- Death of micro-organisms, % E.coli (Escherichia coli): 100.0%
- Virulicidal activity (%) to poliomyelitis virus under exposure of 30 min (poliomyelitis virus): 50.0% and 90.0%
- Virulicidal activity (%) to poliomyelitis virus under exposure of 60 min (poliomyelitis virus): 80.0% and 90.0%

SMILES: O=[N+]([O-])c1ccc(C(O)C(CO)N=P(Cl)(Oc2ccc(Cl)cc2)Oc2ccc(Cl)cc2)cc1 (stereo not drawn) [Example 37, di-para-chlorophenoxychlorophosphazo-1-para-nitrophenyl-1,3-dihydroxyisopropyl]
- Death of micro-organisms, % S.aureus (Staphylococcus aureus): 100.0%
- Death of micro-organisms, % E.coli (Escherichia coli): 100.0%
- Virulicidal activity (%) to poliomyelitis virus under exposure of 30 min (poliomyelitis virus): 60.0% and 90.0%
- Virulicidal activity (%) to poliomyelitis virus under exposure of 60 min (poliomyelitis virus): 90.0% and 100.0%

SMILES: O=[N+]([O-])c1ccc(C(O)C(CO)N=P(Cl)(Cl)Oc2ccc(Cl)cc2)cc1 (stereo not drawn) [Example 39, para-chlorophenoxydichlorophosphazo-1-para-nitrophenyl-1,3-dihydroxyisopropyl]
- Death of micro-organisms, % S.aureus (Staphylococcus aureus): 100.0%
- Death of micro-organisms, % E.coli (Escherichia coli): 100.0%
- Virulicidal activity (%) to poliomyelitis virus under exposure of 30 min (poliomyelitis virus): 70.0% and 95.0%
- Virulicidal activity (%) to poliomyelitis virus under exposure of 60 min (poliomyelitis virus): 90.0% and 100.0%

SMILES: Cc1ccc(OP(=NC(CO)C(O)c2ccc([N+](=O)[O-])cc2)(Oc2ccc(C)cc2)Oc2ccc(C)cc2)cc1 (stereo not drawn) [Example 40, tri-para-methylphenoxy-1-para-nitrophenyl-1,3-dihydroxyisopropyl]
- killing at 0.2 % (Staphylococcus aureus; Staphylococcus aureus): 70%
- killing at 0.2 % (Escherichia coli; Escherichia coli): 90%
- Virulicidal activity (%) to poliomyelitis virus under exposure of 30 min (poliomyelitis virus; [5]): 50.0%
- Virulicidal activity (%) to poliomyelitis virus under exposure of 60 min (poliomyelitis virus; [6]): 70.0%
- Virulicidal activity (%) to poliomyelitis virus under exposure of 30 min (poliomyelitis virus; [7]): 80.0%
- Virulicidal activity (%) to poliomyelitis virus under exposure of 60 min (poliomyelitis virus; [8]): 90.0%

SMILES: O=[N+]([O-])c1ccc(C(O)C(CO)N=P(Oc2ccc(Cl)cc2)(Oc2ccc(Cl)cc2)Oc2ccc(Cl)cc2)cc1 (stereo not drawn) [Example 41, tri-para-chlorophenoxyphosphazo-1-para-nitrophenyl-1,3-dihydroxyisopropyl]
- killing at 0.2 % (Staphylococcus aureus; Staphylococcus aureus): 90%
- killing at 0.2 % (Escherichia coli; Escherichia coli): 100%
- Virulicidal activity (%) to poliomyelitis virus under exposure of 30 min (poliomyelitis virus; [5]): 50.0%
- Virulicidal activity (%) to poliomyelitis virus under exposure of 60 min (poliomyelitis virus; [6]): 80.0%
- Virulicidal activity (%) to poliomyelitis virus under exposure of 30 min (poliomyelitis virus; [7]): 90.0%
- Virulicidal activity (%) to poliomyelitis virus under exposure of 60 min (poliomyelitis virus; [8]): 100.0%

SMILES: CNC(=S)S [carbathione, dihydrate, reference compound]
- killing at 2 % (pig ascarid eggs; [3]): 60%
- killing at 2 % (pig ascarid eggs; [4]): 80%

SMILES: O=S(=O)(NCl)c1ccccc1 [sodium N-chlorobenzenesulfamide, reference compound]
- killing at 0.2 % (Staphylococcus aureus; Staphylococcus aureus): 90%
- killing at 0.5 % (Staphylococcus aureus; Staphylococcus aureus, read-out: Death of micro-organisms, % Staphylo-cocus aureus): 100%
- killing at 0.2 % (Escherichia coli; Escherichia coli): 100%
- killing at 0.5 % (Escherichia coli; Escherichia coli, read-out: Death of micro-organisms, % Escherichia coli): 100%
- Virulicidal activity (%) to poliomyelitis virus under exposure of 30 min (poliomyelitis virus; [5]): 9.0%
- Virulicidal activity (%) to poliomyelitis virus under exposure of 60 min (poliomyelitis virus; [6]): 25.0%
- Virulicidal activity (%) to poliomyelitis virus under exposure of 30 min (poliomyelitis virus; [7]): 12.5%
- Virulicidal activity (%) to poliomyelitis virus under exposure of 60 min (poliomyelitis virus; [8]): 50.0%
- Virulicidal activity (%) under exposure 30 min (Influenza A viruses; concentration 1.0 % by mass): 12.5% and 22.0%
- Virulicidal activity (%) under exposure 60 min (Influenza A viruses; concentration 1.0 % by mass): 25.0%
- Virulicidal activity (%) under exposure 30 min (Influenza A viruses; concentration 2.0 % by mass): 25.0% and 25.1%
- Virulicidal activity (%) under exposure 60 min (Influenza A viruses; concentration 2.0 % by mass): 50.0%
- Virulicidal activity (%) under exposure 30 min (Hepatitis B virus; concentration 1.0 % by mass): 9.0%
- Virulicidal activity (%) under exposure 60 min (Hepatitis B virus; concentration 1.0 % by mass): 25.0%
- Virulicidal activity (%) under exposure 30 min (Hepatitis B virus; concentration 2.0 % by mass): 12.5%
- Virulicidal activity (%) under exposure 60 min (Hepatitis B virus; concentration 2.0 % by mass): 50.0%
- Virulicidal activity (%) under exposure 60 min (Meningopneumonia virus): 25.0% and 50.0%
